Here are results for one compound from patent US7238493B2, “Acetylation of pRb by p300 assay method for compounds which modulate this process” (The University Court of the University of Glasgow, priority 2000, dated 2007).

Entries after “also recorded” stand apart in the source; their conditions may differ.

In the experiment the test system is pRb/MDM2 complex. In words: pRb immunoprecipitation and anti-MDM2 immunoblot from TSA-treated T98G cells. In kind it is cell-based. The conditions noted are these: TSA 5 μM for 18-20 h, FIG. 4g. As to the method: Conversely, conditions that enhance acetylation would be expected to promote the interaction of pRb with MDM2. To this end, we treated T98G cells with trichostatin A (TSA), which blocks histone deacetylase (HDAC) activity 18 and thereafter assessed the interaction between pRb and MDM2.
For immunoprecipitation of endogenous acetylated pRb, cell pellets collected from SAOS2, U2OS, T98G, A31, and HEK293 cells were lysed in IPH buffer (50 mM Tris pH 8.0, 150 mM NaCl, 0.5% NP-40, protease inhibitor cocktail (Roche), 5mM EDTA, 5 μM TSA (Sigma)). The protein concentration of the extracts was determined by Bradford assay (BioRad). Protein-A-agarose was first incubated with anti-Rb antibody IF8 and C15 for 1-2 h at 4 C. […] Proteins bound to the beads were elute with 3×SDS loading buffer and analysed by Western blotting using appropriated antibodies. […]
Domains in E1A for p300-Dependent Acetylation of pRb and Acetylated pRb Binds to MDM2. • a) In vitro acetylation assay in which Flag-tagged p3001135-2414 (0.3 μg) together with GST-pRb (2 μg) was incubated with either wild-type GST-E1A, GST-Δ36 or GST-pm928 (1 μg) as indicated. The effect of the buffer (track 5) or GST (1 μg; track 1) alone was also assessed. The quantification of the level of p300 autoacetylation (b) and pRb acetylation (c) in the presence of the E1A derivatives is shown. […]

In the case of `CC(/C=C/C(=O)NO)=C\[C@@H](C)C(=O)c1ccc(N(C)C)cc1` [TSA, trichostatin A], the “interaction between pRb and MDM2 (pRb/MDM2 complex in pRb immunoprecipitate)” value is “presence of MDM2 in the pRb immunocomplex; also recorded: clearly detectable; also recorded: augments the interaction between pRb and MDM2”.
